Experimental data taken from patent publication US7196084B2, “Cdc25 phosphatase inhibitors” (Societe de Conseils de Recherches et d'Applications …, priority 2000, dated 2007).
pIC50: −log10 of the molar value. Where a name gives a salt, the structure may show the parent alone.

Tests used:
[1] = system: Mia-PaCa2 (human pancreatic cancer cells); experiment: Anti-proliferative activity, WST1 colorimetric test, Mia-PaCa2; type: cell-based; details: MIA PaCa-2, treated for 96 hours, read-out: IC50 on the cell proliferation of Mia-Paca2 lines
Procedure: (§1) c) Characterization of the Anti-proliferative Activity:
(§2) By way of example, the effect of a treatment on two lines of human Mia-Paca2 and DU145 cells with compounds of Examples 1–5 described previously will be studied. The cell lines DU145 (human prostate cancer cells) and Mia-PaCa2 (human pancreatic cancer cells) were acquired from the American Tissue Culture Collection (Rockville, Md., USA). The cells placed in 80 μL of Dulbecco's modified Eagle medium (Gibco-Brl, Cergy-Pontoise, France) completed with 10% foetal calf serum inactivated by heating (Gibco-Brl, Cergy-Pontoise, France), 50000 units/l of penicillin and 50 mg/l streptomycin (Gibco-Brl, Cergy-Pontoise, France), and 2 mM of glutamine (Gibco-Brl, Cergy-Pontoise, France) were seeded on a 96-well plate on day 0. The cells were treated on day 1 for 96 hours with increasing concentrations of each of the compounds to be tested up to 50 μg/ml. At the end of this period, quantification of cell proliferation is evaluated by a colorimetric test based on the cleavage of the tetrazolium salt WST1 by mitochondrial dehydrogenases in viable cells leading to the formation of formazan (Boehringer Mannheim, Meylan, France). These tests are carried out in duplicate with 8 determinations per concentration tested. For each compound to be tested, the values included in the linear part of the sigmoid were retained for linear regression analysis and used to estimate the inhibitory concentration IC50. The products are solubilized in dimethylsulphoxide (DMSO) at 10^−2 M and finally used in culture with 0.5% DMSO.

[2] = system: phosphorylation of cdc2 in the Mia PaCa-2 line (endogenous cdc25C phosphatase of human cells); experiment: Measurement of the state of cdc2 phosphorylation (western blot); type: cell-based; details: Mia-Paca2 cells treated with increasing concentrations, sampling 24 hours later, FIG. 1; menadione as reference inhibitor
Procedure: b) Measurement of the State of cdc2 Phosphorylation:
This relates to showing that the enzymatic activity of cdc25-C phosphatase is inhibited in vivo […] in the presence of selected inhibitors.
The cells of the Mia PaCa2 line are seeded at a rate of 450 000 cells in 10 cm Petri dishes in Dulbecco's modified Eagle medium completed with 10% foetal calf serum. 48 hours later, the cells are treated for 1 hour with the compound to be tested or menadione at 100 μM (reference inhibitor). The medium is renewed after washing with PBS. 24 hours after the cells are scraped and lysed in the lysis buffer (Hepes 50 mM pH 7.5; NaCl 10 mM; Triton X100 1%; glycerol 10%; MgCl2 5 mM; EDTA 1 mM; sodium orthovanadate 1 mM; protease inhibitor cocktail 1836170 Roche Diagnostics). After centrifugation at 13 000 rpm for 10 minutes at 4° C., the concentration of proteins is determined in the supernatant (Bio-Rad DC Protein assay kit) and adjusted to 10 μg. The load buffer concentrated 5 times (Tris HCl 125 mM pH 7.4; SDS 10%; glycerol 50%; bromophenol blue 0.025%; β-mercaptoethanol 7%) is added to the samples. The samples are heated for 10 minutes at 100° C. The samples are deposited in a volume of 40 μl on Tris/Glycine 12% gels (BioRad). Migration occurs over 1 hour at 180 V. The proteins are transferred onto a nitrocellulose membrane (Hybond C, Amersham) under semi-dry conditions. […]

[3] = system: DU145 (human prostate cancer cells); experiment: Anti-proliferative activity, WST1 colorimetric test, DU145; type: cell-based; details: DU-145, treated for 96 hours, read-out: IC50 on the cell proliferation of DU-145 lines
Procedure: as §1, §2

Row | pIC50 [1] | melting point | pIC50 [3] | SMILES | increase of the phosphorylated form of cdc2 [2]
1 | ≥ 4.00 | 145 to 148 °C |  | CN(C)c1ccccc1NC(=O)CCCCc1ccc(/N=C(/N)c2cccs2)cc1.Cl [Example 30, 5-(4-{[(1E)-amino(2-thienyl)methylidene]amino}phenyl)-N-[2-(dimethylamino)phenyl]pentanamide hydrochloride] | 
2 | ≥ 4.00 | 193 to 195 °C |  | CCCCS(=O)(=O)Nc1ccc(CCNC(=O)c2cc3cc(O)ccc3cc2O)cc1 [Example 17, N-(2-{4-[(butylsulphonyl)amino]phenyl}ethyl)-3,7-dihydroxy-2-naphthamide] | 
3 | ≥ 4.00 |  |  | COc1cc(N(C)C)cc(CN(C)CCc2ccc([N+](=O)[O-])cc2)c1OC(C)=O [Example 10, 4-(dimethylamino)-2-methoxy-6-({methyl[2-(4-nitrophenyl)ethyl]amino}methyl)phenyl acetate] | 
4 | ≥ 4.00 |  |  | CC1CCN(S(=O)(=O)c2cccc(CNC(=O)c3cc4cc(O)ccc4cc3O)c2)CC1 [Example 29, 3,7-dihydroxy-N-{3-[(4-methyl-1-piperidinyl)sulphonyl]benzyl}-2-naphthamide] | 
5 | ≥ 4.00 | > 250 °C |  | O=C(NCCc1ccc([N+](=O)[O-])cc1)c1cc2cc(O)ccc2cc1O [Example 11, 3,7-dihydroxy-N-[2-(4-nitrophenyl)ethyl]-2-naphthamide] | 
6 | ≥ 4.00 | 135 to 137 °C |  | Cc1ccc(S(=O)(=O)N2CCN(C(=O)c3cc4cc(O)ccc4cc3O)CC2)cc1 [Example 31, 3-({4-[(4-methylphenyl)sulphonyl]piperazin-1-yl}carbonyl) naphthalene-2,6-diol] | 
7 | ≥ 4.00 |  |  | O=C(NCCc1ccc(NS(=O)(=O)c2ccc(F)cc2)cc1)c1cc2cc(O)ccc2cc1O [Example 28, N-[2-(4-{[(4-fluorophenyl)sulphonyl]amino}phenyl)ethyl]-3,7-dihydroxy-2-naphthamide] | 
8 | ≥ 4.00 | 182 to 184 °C |  | Cc1ccc(S(=O)(=O)Nc2ccc(CCNC(=O)c3cc4cc(O)ccc4cc3O)cc2)cc1 [Example 18, 3,7-dihydroxy-N-[2-(4-{[(4-methylphenyl)sulphonyl]amino}phenyl)ethyl]-2-naphthamide] | 
9 | ≥ 4.00 |  | ≥ 4.00 | O=C(NCCc1ccc(NS(=O)(=O)c2cccc(C(F)(F)F)c2)cc1)c1cc2cc(O)ccc2cc1O [Example 22, 3,7-dihydroxy-N-{2-[4-({[3-(trifluoromethyl)phenyl]sulphonyl}amino)phenyl]ethyl}-2-naphthamide] | 
10 | ≥ 4.00 |  | ≥ 4.00 | NS(=O)(=O)c1ccc(CCNC(=O)c2cc3cc(O)ccc3cc2O)cc1 [Example 14, N-{2-[4-(aminosulphonyl)phenyl]ethyl}-3,7-dihydroxy-2-naphthamide] | 
11 |  | 105 to 110 °C |  | CCCCS(=O)(=O)N1CCN(C(=O)c2cc3cc(O)ccc3cc2O)CC1 [Example 33, 3-{[4-(butylsulphonyl)piperazin-1-yl]carbonyl}naphthalene-2,6-diol] | 
12 | ≥ 4.00 |  |  | COc1cc(CN(C)CCc2ccc([N+](=O)[O-])cc2)cc(N(C)C)c1O [Example 8, 2-(dimethylamino)-6-methoxy-4-({methyl[2-(4-nitrophenyl)ethyl]amino}methyl)phenol] | 
13 |  | 124 to 126 °C |  | CS(=O)(=O)N1CCN(C(=O)c2cc3cc(O)ccc3cc2O)CC1 [Example 32, 3-{[4-(methylsulphonyl)piperazin-1-yl]carbonyl}naphthalene-2,6-diol] | 
14 | ≥ 4.00 | 176 to 178 °C |  | CS(=O)(=O)Nc1ccc(CCNC(=O)c2cc3cc(O)ccc3cc2O)cc1 [Example 16, 3,7-dihydroxy-N-(2-{4-[(methylsulphonyl)amino]phenyl}ethyl)-2-naphthamide] | 

More lines, now with the values behind:

Row | SMILES | pIC50 [1] | melting point | pIC50 [3] | increase of the phosphorylated form of cdc2 [2]
15 | CN(CCc1ccc([N+](=O)[O-])cc1)Cc1cc(O)ccc1O [Example 9, 2-({methyl [2-(4-nitrophenyl)ethyl]amino}methyl)-1,4-benzenediol] | ≥ 4.00 |  |  | 
16 | CC1=CC(=O)c2ccccc2C1=O [menadione, reference compound] |  |  |  | increase
17 | CCOP(=O)(OCC)Oc1ccc(CCNC(=O)c2cc3cc(O)ccc3cc2O)cc1 [Example 13, diethyl 4-{2-[(3,7-dihydroxy-2-naphthoyl)amino]ethyl}phenylphosphate] | ≥ 4.00 | 192 to 194 °C | ≥ 4.00 | 
18 | CN(C)c1ccc(O)c(CNCCc2ccc([N+](=O)[O-])cc2)c1 [Example 7, 4-(dimethylamino)-2-({[2-(4-nitrophenyl)ethyl]amino}methyl)phenol] | ≥ 4.00 |  |  | 
19 | COc1cc(N(C)C)cc(CN(C)CCc2ccc([N+](=O)[O-])cc2)c1O [Example 1, 4-(dimethylamino)-2-methoxy-6-({methyl[2-(4-nitrophenyl)ethyl]-amino}methyl)phenol] | ≥ 4.00 | 91 to 93 °C |  | growing increase of the phosphorylated form of cdc2
20 | CN(CCc1ccc([N+](=O)[O-])cc1)Cc1cc(N(C)C)ccc1O [Example 2, 4-(dimethylamino)-2-({methyl[2-(4-nitrophenyl)ethyl]amino}methyl)phenol] | ≥ 4.00 |  |  | 
21 | CN1CCN(c2ccc(NC(=O)CCCc3ccc(N)cc3)cc2)CC1.Cl [Example 5, 4-(4-aminophenyl)-N-[4-(4-methyl-1-piperazinyl)phenyl]butanamide hydrochloride] |  | 156 to 158 °C |  | 
22 | CN(C)c1ccc(NC(=O)CCNCc2cccc(N=C(N)c3cccs3)c2)cc1 [Example 4, 3-[(3-{[amino(2-thienyl)methylidene]amino}-benzyl)amino]-N-[4-(dimethylamino)phenyl]propanamide hydrochloride] | ≥ 4.00 |  |  | 
23 | COc1cc(N(C)C)cc(CNCCc2ccc([N+](=O)[O-])cc2)c1O [Example 6, 4-(dimethylamino)-2-methoxy-6-({[2-(4-nitrophenyl)ethyl]amino}methyl)phenol] | ≥ 4.00 |  |  | 
